{"source": "patent US8092790B2", "about": "“Methods of making formulations to affect insect behavior and/or bird behavior” (Bug Buster, Ltd., priority 2003, dated 2012)", "key": {"[1]": {"system": "T. coloratus", "details": "in vivo; cited from earlier work"}, "[2]": {"system": "ant nest", "assay": "Treatment of ant nest", "type": "in vivo", "details": "diluted form; about 24 hours post-application", "from_the_text": "An exemplary method includes applying an exemplary compound or an exemplary composition to an insect nest."}, "[3]": {"system": "fruit flies (Drosophila spp.)", "assay": "Attraction of fruit flies, sticky trap with treated surface", "type": "in vivo", "from_the_text": "An exemplary compound, methyl anthranilate, was combined with fatty acid and used to attract insects, in particular, fruit flies (Drosophila spp.). This exemplary compound will also repel at least some birds. […] An exemplary compound, methyl anthranilate, was combined with fatty acid and applied to a surface (e.g., a treated surface) of a sticky trap and used to attract and to trap insects, in particular, fruit flies (Drosophilia spp.). This exemplary compound will also repel at least some birds.\nA trial compared insect attraction for an untreated surface of a sticky trap and with a treated surface of a sticky trap.\nFor example, grape crushing and/or fermenting may release competitive agents."}, "[4]": {"system": "house flies (Drosophila melanogater)", "assay": "Three-section Petri dish choice test", "type": "in vivo", "from_the_text": "Colonies of house flies (Drosophila melanogater) were selected for subsequent placement in covered Petri dishes wherein each Petri dish was divided into three sections. One of the sections, a center section, was used as a control. An exemplary compound, methyl anthranilate (e.g., BIRDSHIELD™ at 0.006%) was applied to a piece of filter paper and placed in a first section while an […] (e.g., deionized water), was applied to another piece of filter paper and placed in second section. Flies were then released into the center control section and lids were placed on the Petri dishes.\nMore specifically, 100 captive flies were used and the sections were approximately equal in size, e.g., 33% of total space per section. Flies were released into the neutral zone of each Petri dish and monitored after 15 minutes and one hour."}, "[5]": {"system": "T. tabaci", "details": "in vivo; cited from earlier work"}, "[6]": {"system": "sunflower seed weevils (Smicronyx spp.)", "assay": "Comparison to DEET product, drawing weevils out of sunflower heads", "type": "in vivo", "from_the_text": "DEET is often used by entomologists in standard procedures to draw sunflower seed weevils (Smicronyx spp.) out of the heads of sunflowers. In this trial, DEET was provided in the commercially available product DEEP WOODS OFF™ repellent (S.C. Johnson and Son's, Racine, Wis.), which has approximately 28.5% active ingredient; 1.5% other isomers and 70% inert ingredients. Forty-two flowers were randomly selected from interiors of three fields. One-half of the flowers were sprayed with the DEET containing repellent while the remaining flowers were sprayed with the exemplary compound at a concentration of approximately 0.00312% methyl anthranilate, which was combined with long chained fatty acids. The number of sunflower weevils was recorded."}, "[7]": {"system": "birds", "assay": "Container placed in aircraft hanger", "type": "in vivo", "details": "2.5 gallon HDPE container at least partially filled"}, "[8]": {"system": "corn ear worm (Heliothus zea)", "assay": "Crop field trials with lambda cyalothrin insecticide, corn ear worm larvae", "type": "in vivo", "from_the_text": "An exemplary compound, methyl anthranilate, was combined with fatty acid and applied to crop fields (again, this formulation will also repel at least some birds), contemporaneously, an insecticide having a pyrethrin, lambda cyalothrin, as an active ingredient was applied to crop fields (e.g., WARRIOR™).\nIn another trial, an insecticide that included a pyrethrin, lambda cyalothrin, was applied to crop fields (e.g., WARRIOR™). […] Later, an exemplary compound, methyl anthranilate, combined with a fatty acid, was applied to the same crop field. […] An exemplary composition included an exemplary compound, methyl anthranilate, fatty acid and an insecticide that included a pyrethrin, lambda cyalothrin, as an active ingredient (e.g., WARRIOR™). The exemplary composition was applied to crop fields."}, "[9]": {"system": "mites and spiders", "assay": "Sunflower field application, other insects on treated sunflowers", "type": "in vivo", "details": "BIRDSHIELD at 0.006%, approx. two weeks after ASANA", "from_the_text": "(§1) An insecticide, ASANA™, was applied to sunflowers. Approximately two weeks later, an exemplary compound, methyl anthranilate (e.g., BIRDSHIELD™ at 0.006%) was applied to the same sunflowers. […] This behavior caused the larvae to fall off of the flower portions of the sunflowers. In addition, the exemplary compound affected behavior of other insects on the treated sunflowers."}, "[10]": {"system": "banded sunflower moth (Cochylis hospes), sunflower seed head larvae", "assay": "Sunflower field application, seed head larvae", "type": "in vivo", "details": "BIRDSHIELD at 0.006%, approx. two weeks after ASANA; within a minute of application", "from_the_text": "An insecticide such as ASANA™ (active ingredient esfenvalerate) is suitable for use in controlling banded sunflower moth (Cochylis hospes). An exemplary composition that included an exemplary compound, methyl anthranilate (e.g., BIRDSHIELD™), was applied to sunflowers.\nas §1"}, "[11]": {"system": "striped sunflower head moth larvae", "assay": "Exemplary compound on sunflowers previously sprayed with esfenvalerate, moth larvae emerging", "type": "in vivo", "from_the_text": "An exemplary compound, methyl anthranilate, was combined with long chain fatty acids. An exemplary method applied the mixture to fifteen maturing sunflowers in the interior of two fields that were previously sprayed with an insecticide, esfenvalerate (e.g., the insecticide product ASANA™). The mixture that included the exemplary compound was applied by spraying the mixture across the head of each flower (e.g., where seeds exist). The number of striped sunflower head moth larvae and weevils, emerging from the seeds, was recorded."}, "[12]": {"system": "Aenictus", "details": "in vivo; cited from earlier work"}}, "note": "Several values for one entry are separate records, joined by “and”; a condition that tells them apart may be missing. Equal entries are not always repeated.", "data": [{"smiles": "COC(=O)c1ccccc1N", "note": "[methyl anthranilate]", "values": [{"measurement": "attraction of T. coloratus", "setting": "[1]", "value": "are attracted"}, {"measurement": "ant activity at the site of the nest", "setting": "[2]", "value": "no ant activity was observed"}, {"measurement": "attraction of fruit flies", "setting": "[3]; combined with fatty acid", "value": "attracted fruit flies"}, {"measurement": "effectiveness in a competitive environment", "setting": "[3]; grape crushing and/or fermenting may release competitive agents", "value": "may be diminished in a competitive environment"}, {"measurement": "insects on treated surface of sticky trap", "setting": "[3]; in less than one minute, only a few insects on untreated surface", "value": "covered with insects"}, {"measurement": "fly response to treated section", "setting": "[4]; 0.006% on filter paper, within one hour", "value": "avoided the section treated with the exemplary compound"}, {"measurement": "fly response to treated areas", "setting": "[4]; approximately 0.00025%", "value": "relatively neutral"}, {"measurement": "fly response to treated areas", "setting": "[4]; approximately 0.0025%", "value": "somewhat neutral"}, {"measurement": "fly response to treated areas", "setting": "[4]; approximately 0.025%", "value": "avoided the treated areas"}, {"measurement": "fly response to treated areas", "setting": "[4]; approximately 0.25%, 100 flies, monitored after 15 minutes and one hour", "value": "avoided the treated areas"}, {"measurement": "attraction of T. tabaci", "setting": "[5]", "value": "did not attract"}, {"measurement": "Number of insects, Mean", "setting": "[6]; Field No. 1", "value": 6.8}, {"measurement": "Number of insects, Total", "setting": "[6]; Field No. 1", "value": 68}, {"measurement": "Number of insects, Mean", "setting": "[6]; Field No. 2", "value": 24}, {"measurement": "Number of insects, Total", "setting": "[6]; Field No. 2", "value": 72}, {"measurement": "Number of insects", "setting": "[6]; Field No. 2, per flower, DEET as DEEP WOODS OFF, methyl anthranilate approx. 0.00312% with long chained fatty acids", "value": "23 and 24 and 26"}, {"measurement": "Number of insects, Mean", "setting": "[6]; Field No. 3", "value": 8.4}, {"measurement": "Number of insects, Total", "setting": "[6]; Field No. 3", "value": 67}, {"measurement": "effectiveness compared with DEET", "setting": "[6]; approx. 0.00312% methyl anthranilate with long chained fatty acids vs DEET repellent product", "value": "generally more effective than DEET"}, {"measurement": "bird population in hanger", "setting": "[7]", "value": "bird population dwindled"}, {"measurement": "surface guano on aircraft", "setting": "[7]", "value": "significant drop in surface guano"}, {"measurement": "corn ear worm larvae on the ground", "setting": "[8]; combined with a fatty acid, applied later to field already treated with lambda cyalothrin, within a day", "value": "littered the ground"}, {"measurement": "corn ear worm larvae on the ground", "setting": "[8]; combined with fatty acid, applied contemporaneously with lambda cyalothrin insecticide (WARRIOR), within a day of treatment", "value": "littered the ground"}, {"measurement": "behavior of mites and spiders on treated sunflowers", "setting": "[9]", "value": "observed to appear from spaces between maturing seeds and to subsequently fall off the flower portion of the sunflowers"}, {"measurement": "appearance of sunflower seed head larvae", "setting": "[10]", "value": "began to appear on the surface of the sunflowers"}, {"measurement": "Number of Moth Larvae, Mean", "setting": "[11]; Field No 2", "value": 0.86}, {"measurement": "Number of Moth Larvae, Total", "setting": "[11]; Field No 2", "value": 6}, {"measurement": "Number of Moth Larvae, Mean", "setting": "[11]; Field No. 1", "value": 0.57}, {"measurement": "Number of Moth Larvae, Total", "setting": "[11]; Field No. 1", "value": 4}, {"measurement": "drawing larvae and weevils out of the seeds", "setting": "[11]; after the crop had been treated with the insecticide alone", "value": "successful in drawing striped sunflower head math larvae out of the seeds"}, {"measurement": "semiochemical function for Aenictus", "setting": "[12]", "value": "trail semiochemicals"}]}]}
